Measured values: ChEMBL document CHEMBL1909046, “DrugMatrix in vitro pharmacology data”

Columns and labels:
Androgen receptor = target: T1, Androgen receptor (Rattus norvegicus, UniProt P15207)
T1 sequence (P15207 whole entry): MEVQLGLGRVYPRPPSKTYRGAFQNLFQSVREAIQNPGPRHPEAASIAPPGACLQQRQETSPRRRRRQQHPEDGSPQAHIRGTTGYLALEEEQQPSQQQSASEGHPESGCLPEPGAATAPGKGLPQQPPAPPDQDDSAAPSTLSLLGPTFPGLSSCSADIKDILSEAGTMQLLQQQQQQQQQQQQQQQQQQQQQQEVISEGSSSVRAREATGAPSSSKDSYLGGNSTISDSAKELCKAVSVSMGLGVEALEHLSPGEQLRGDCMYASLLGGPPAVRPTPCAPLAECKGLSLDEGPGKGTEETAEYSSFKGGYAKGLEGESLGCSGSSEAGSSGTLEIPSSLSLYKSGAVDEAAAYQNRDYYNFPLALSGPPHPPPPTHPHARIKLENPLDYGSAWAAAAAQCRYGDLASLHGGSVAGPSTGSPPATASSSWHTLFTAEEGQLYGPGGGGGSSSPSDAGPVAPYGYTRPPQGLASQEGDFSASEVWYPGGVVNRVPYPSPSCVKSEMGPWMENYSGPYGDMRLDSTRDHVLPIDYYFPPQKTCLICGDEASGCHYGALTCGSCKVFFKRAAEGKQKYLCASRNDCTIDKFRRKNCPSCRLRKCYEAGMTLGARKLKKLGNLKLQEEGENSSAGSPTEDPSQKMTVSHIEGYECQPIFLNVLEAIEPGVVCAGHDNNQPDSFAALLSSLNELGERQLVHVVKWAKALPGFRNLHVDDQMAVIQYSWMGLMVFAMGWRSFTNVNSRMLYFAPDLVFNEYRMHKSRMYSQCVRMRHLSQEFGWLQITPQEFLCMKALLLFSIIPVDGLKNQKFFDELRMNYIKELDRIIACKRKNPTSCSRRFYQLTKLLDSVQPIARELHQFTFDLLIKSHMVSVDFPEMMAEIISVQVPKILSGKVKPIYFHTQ

Estrogen receptor = target: T2, Estrogen receptor (Homo sapiens, UniProt P03372); settings: sf9
T2 sequence (P03372 whole entry): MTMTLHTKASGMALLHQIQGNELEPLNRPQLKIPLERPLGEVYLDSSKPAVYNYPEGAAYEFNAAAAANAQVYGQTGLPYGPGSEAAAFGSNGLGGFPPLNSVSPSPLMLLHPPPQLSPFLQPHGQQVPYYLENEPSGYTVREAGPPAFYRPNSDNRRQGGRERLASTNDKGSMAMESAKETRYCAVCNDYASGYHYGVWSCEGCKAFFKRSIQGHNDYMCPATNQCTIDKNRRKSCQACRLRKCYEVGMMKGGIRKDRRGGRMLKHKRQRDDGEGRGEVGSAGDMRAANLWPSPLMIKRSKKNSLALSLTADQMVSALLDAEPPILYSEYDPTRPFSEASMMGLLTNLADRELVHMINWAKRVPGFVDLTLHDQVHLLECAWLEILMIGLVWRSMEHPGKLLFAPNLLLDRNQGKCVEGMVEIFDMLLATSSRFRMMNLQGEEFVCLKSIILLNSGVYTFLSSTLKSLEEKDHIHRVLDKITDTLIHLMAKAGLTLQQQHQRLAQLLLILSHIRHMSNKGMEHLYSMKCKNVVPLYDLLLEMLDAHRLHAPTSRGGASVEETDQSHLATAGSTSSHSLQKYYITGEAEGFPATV

Cytochrome P450 2D6 = Cytochrome P450 2D6 (Homo sapiens, UniProt P10635)
Cytochrome P450 1A2 = target: T3, Cytochrome P450 1A2 (Homo sapiens, UniProt P05177)
T3 sequence (P05177 whole entry): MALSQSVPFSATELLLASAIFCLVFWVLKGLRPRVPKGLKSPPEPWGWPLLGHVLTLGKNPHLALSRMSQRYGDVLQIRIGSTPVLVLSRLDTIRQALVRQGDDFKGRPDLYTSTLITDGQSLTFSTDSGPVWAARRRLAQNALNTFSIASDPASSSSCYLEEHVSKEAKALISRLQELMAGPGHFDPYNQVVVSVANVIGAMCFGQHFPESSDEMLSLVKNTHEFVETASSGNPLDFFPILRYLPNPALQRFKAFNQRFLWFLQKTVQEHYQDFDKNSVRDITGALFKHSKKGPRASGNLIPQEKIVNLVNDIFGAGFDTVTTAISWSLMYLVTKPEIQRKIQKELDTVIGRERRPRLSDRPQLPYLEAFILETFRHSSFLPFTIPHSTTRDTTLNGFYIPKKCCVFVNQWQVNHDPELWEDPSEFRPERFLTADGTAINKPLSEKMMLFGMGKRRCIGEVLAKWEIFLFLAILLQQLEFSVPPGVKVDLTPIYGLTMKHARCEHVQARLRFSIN
Further: in other assays of this panel Not Active means under 50% inhibition at 10 µM.

Sequence of Cytochrome P450 2D6 (P10635 whole entry): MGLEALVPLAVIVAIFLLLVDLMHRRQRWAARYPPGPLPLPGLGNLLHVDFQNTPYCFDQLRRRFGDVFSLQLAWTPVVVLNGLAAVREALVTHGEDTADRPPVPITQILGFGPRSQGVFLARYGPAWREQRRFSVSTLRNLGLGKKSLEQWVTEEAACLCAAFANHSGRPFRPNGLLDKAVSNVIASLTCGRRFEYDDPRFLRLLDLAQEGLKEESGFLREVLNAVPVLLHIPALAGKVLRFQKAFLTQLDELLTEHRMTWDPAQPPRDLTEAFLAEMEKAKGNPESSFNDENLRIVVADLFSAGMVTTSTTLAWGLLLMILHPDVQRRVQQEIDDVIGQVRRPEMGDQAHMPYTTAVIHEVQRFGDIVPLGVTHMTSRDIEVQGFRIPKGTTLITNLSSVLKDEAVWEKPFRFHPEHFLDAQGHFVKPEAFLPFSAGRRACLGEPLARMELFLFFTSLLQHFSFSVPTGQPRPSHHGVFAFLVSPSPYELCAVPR

Compound: N[C@H](CSC(=S)NCc1ccccc1)C(=O)O
- IC50 (Androgen receptor): Not Active
- IC50 (Estrogen receptor): Not Active

Compound: CC(=O)N[C@@H]1[C@H](Oc2c3cc4cc2Oc2ccc(cc2Cl)[C@@H](O[C@@H]2O[C@@H](CO)[C@@H](O)[C@H](O)[C@@H]2NC(C)=O)[C@@H]2NC(=O)[C@H](NC(=O)[C@@H]4NC(=O)[C@H]4NC(=O)[C@@H](Cc5ccc(c(Cl)c5)O3)NC(=O)[C@H](N)c3ccc(O)c(c3)Oc3cc(O)cc4c3)c3ccc(O)c(c3)-c3c(O[C@H]4O[C@H](CO)[C@@H](O)[C@@H](O)[C@@H]4O)cc(O)cc3[C@@H](C(=O)O)NC2=O)O[C@@H](CO)[C@@H](O)[C@@H]1O
- IC50 (Androgen receptor): Not Active
- IC50 (Estrogen receptor): Not Active

Compound: Clc1ccc2c(c1)C(N1CCNCC1)=Nc1ccccc1O2 [AMOXAPINE]
- IC50 (Cytochrome P450 2D6): 10 µM
- IC50 (Estrogen receptor): Not Active

Compound: COc1cc2c(c(OC)c1OC)-c1ccc(OC)c(=O)cc1[C@@H](NC(C)=O)CC2 [COLCHICINE]
- IC50 (Androgen receptor): Not Active
- IC50 (Estrogen receptor): Not Active

Compound: CN1CCC(=C2c3ccccc3C=Cc3ccccc32)CC1 [CYPROHEPTADINE]
- IC50 (Estrogen receptor): Not Active

Compound: CC(=O)N1CCN(c2ccc(OCC3COC(Cn4ccnc4)(c4ccc(Cl)cc4Cl)O3)cc2)CC1 (stereo not drawn) [KETOCONAZOLE]
- IC50 (Estrogen receptor): Not Active

Compound: COCCOC(=O)C1=C(C)NC(C)=C(C(=O)OC(C)C)C1c1cccc([N+](=O)[O-])c1 (stereo not drawn) [NIMODIPINE]
- IC50 (Estrogen receptor): Not Active

Compound: CC(C)NCC(O)COc1cccc2ccccc12 (stereo not drawn) [PROPRANOLOL]
- IC50 (Cytochrome P450 1A2): 4 µM

Compound: CNC(=C[N+](=O)[O-])NCCSCc1ccc(CN(C)C)o1 [RANITIDINE]
- IC50 (Estrogen receptor): Not Active

Compound: CO[C@H]1/C=C/O[C@@]2(C)Oc3c(C)c(O)c4c(c3C2=O)C2=NC3(CCN(CC(C)C)CC3)NC2=C(NC(=O)/C(C)=C\C=C\[C@H](C)[C@H](O)[C@@H](C)[C@@H](O)[C@@H](C)[C@H](OC(C)=O)[C@@H]1C)C4=O [RIFABUTIN]
- IC50 (Androgen receptor): Not Active
- IC50 (Estrogen receptor): Not Active

Compound: CC(C)c1nc(CN(C)C(=O)N[C@H](C(=O)N[C@@H](Cc2ccccc2)C[C@H](O)[C@H](Cc2ccccc2)NC(=O)OCc2cncs2)C(C)C)cs1 [RITONAVIR]
- IC50 (Estrogen receptor): Not Active

Compound: [H]/N=C(/N)N[C@H]1[C@H](O)[C@@H](O)[C@H](O[C@@H]2O[C@@H](C)[C@](O)(C=O)[C@H]2O[C@@H]2O[C@@H](CO)[C@H](O)[C@@H](O)[C@@H]2NC)[C@@H](N/C(N)=N\[H])[C@@H]1O [STREPTOMYCIN]
- IC50 (Estrogen receptor): Not Active

Compound: COc1cc(NS(=O)(=O)c2ccc(N)cc2)nc(OC)n1 [SULFADIMETHOXINE]
- IC50 (Androgen receptor): Not Active
- IC50 (Estrogen receptor): Not Active

Compound: C[C@]1(Cn2ccnn2)[C@H](C(=O)O)N2C(=O)C[C@H]2S1(=O)=O [TAZOBACTAM]
- IC50 (Estrogen receptor): Not Active

Compound: CN1C(C(=O)Nc2ccccn2)=C(O)c2sccc2S1(=O)=O [TENOXICAM]
- IC50 (Estrogen receptor): Not Active

Compound: CC(C)(C)c1ccc(C(O)CCCN2CCC(C(O)(c3ccccc3)c3ccccc3)CC2)cc1 (stereo not drawn) [TERFENADINE]
- IC50 (Estrogen receptor): Not Active

Compound: Cc1cccc(Nc2ccncc2S(=O)(=O)NC(=O)NC(C)C)c1 [TORSEMIDE]
- IC50 (Estrogen receptor): Not Active

Compound: CC(C)C[C@H](NC(=O)[C@@H](O)[C@H](N)Cc1ccccc1)C(=O)O [UBENIMEX]
- IC50 (Estrogen receptor): Not Active

Compound: CC[C@]1(O)C[C@@H]2CN(CCc3c([nH]c4ccccc34)[C@@](C(=O)OC)(c3cc4c(cc3OC)N(C)[C@H]3[C@@](O)(C(=O)OC)[C@H](OC(C)=O)[C@]5(CC)C=CCN6CC[C@]43[C@@H]65)C2)C1 [VINBLASTINE]
- IC50 (Estrogen receptor): Not Active

Compound: C[C@@H](N)[C@H]1CC[C@H](C(=O)Nc2ccncc2)CC1 [Y-27632]
- IC50 (Androgen receptor): Not Active
- IC50 (Estrogen receptor): Not Active

Compound: [Cl-].[Cl-].[Zn+2] [ZINC CHLORIDE]
- IC50 (Estrogen receptor): Not Active
